# Legend:
# [1] = system: CHL (Chinese Hamster Lung Cell); type: cell-based; details: cell layer transfer with weighting 0.8 g/cm^2, immersion 10 minutes, culture one day, immersion 20 minutes; for State of cells after detachment: Morphology of survived cells: optical microscope; for State of cells after detachment: Survival rate: trypan blue
# Description: The samples obtained by the culture on the carriers for cell culture in Example 2 were taken out together with the carriers for cell culture, and placed on polystyrene cell culture dishes in such a manner that the cell layer surfaces contacted with the dishes, and foamed urethane filters having a thickness of 3 mm and stainless steel plates were placed thereon in this order. The weight of each stainless steel plate was adjusted so that the total weight including the weight of the urethane filter became 0.8 g/cm^2. Then, the samples were immersed in the detachment solution (iii), (iv) or (v) mentioned in Example 2 for 10 minutes, and after the solution was replaced with the medium, culture was performed at 37° C. for one day by using a CO2 incubator. The cultures were immersed in the same detachment solutions for 20 minutes, and then the carriers for cell culture were detached by pulling with a pair of tweezers. Then, the solutions were replaced with the medium, and culture was continued at 37° C. for one day by using a CO2 incubator. The cells were stained with trypan blue and then observed under an optical microscope. Favorable results were obtained with the detachment solutions of the present invention. In the sample where the weight was applied only by using the stainless steel plates without using the […] and the sample where the detachment solution (i) was used, the cells died during the transfer operation. Further, in the sample where the detachment solution (ii) was used, transfer was not successful.
# [2] = system: CHL (Chinese Hamster Lung Cell); assay: Detachment of cultured cell layer from carrier for cell culture (Example 2); type: cell-based; details: time required to detach CHL cell layer from calcium alginate/collagen carrier on immersion; MEM with EDTA, 3 g/l HMPA or 3 mM HEDP
# Protocol: • Used cell: CHL (Chinese Hamster Lung Cell) • Used medium: Eagle's minimum medium containing 10% bovine fetal serum Carrier for Cell Culture: The carrier for cell culture prepared in Example 1, adhered to bottom surfaces of polystyrene cell culture dishes with double-sided tapes, and a polystyrene cell culture dishes alone as a comparative example were subjected to UV sterilization or electron beam sterilization. The operation, wherein the medium was added to the dishes to immerse the carrier for cell cultures for 5 minutes and then the medium was exchanged, was repeated three times, and then the dishes were left overnight to allow the medium to infiltrate into the carriers for cell culture. The calls cultured beforehand were collected by trypsin treatment, and the cell density was adjusted to 50,000 cells/ml. After the medium in the cells and dishes was discarded, the cell suspension was inoculated into the dishes at a cell number of 10,000 cells/cm^2, and then the medium was added. Thereafter, the cells were cultured at 37° C. for two days by using a CO2 incubator. The samples obtained by the culture were immersed in each of the following seven kinds of detachment solutions and non-detachment solutions, and then the cell layers were pulled with a pair of tweezers to examine state of detachment of the cell layers from the carriers for cell culture. A period of time required for the detachment of each cell layer was measured. Then, the cell sheets detached with an immersion time in a detachment solution of 30 minutes was placed on a polystyrene cell culture dish, added with the medium and cultured at 37° C. for one day by using a CO2 incubator. The cells were stained with trypan blue and observed under an optical microscope. The use of detachment agents of the present invention provided favorable detachment characteristics, that is, high survival rate of the cells and non-stimulative property (i.e., no cell deformation due to stimulation) was successfully confirmed. […]
# CHL cells = assay: Influence of chelating agent on cultured cells (Example 5); type: cell-based, Chinese Hamster; details: cultured two days at 37° C. in the medium, 1.5 mM EDTA, GEDTA, DTPA, EDTPO, 3 g/l HMPA, 3 mM HEDP
# Protocol: CHL cells cultured beforehand were collected by trypsinization, and the cell density was adjusted to 50000 cells/ml. This cell suspension was inoculated on a polystyrene cell culture dish at a cell number of 10000 cells/cm^2, and each of the following media was added. Then, the cells were cultured at 37° C. for two days by using a CO2 incubator. The results of evaluation of stimulative property on the cells based on morphology and proliferation property of the cultured cells are shown in Table 3. The results are represented by using the result obtained for the cells cultured with the medium a mention d in the table as a standard. […] Eagle's minimum medium (MEM) • Medium b: […] MEM added with 1.5 mM diethylenetriamine-N,N,N′,N,N-pentaacetic acid (DTPA) • Medium e: MEM added with 3 g/l of sodium hexametaphosphate (HMPA) • Medium f: […] MEM added with 1.5 mM ethylenediamine-N,N,N′,N′-tetrakis(methylenephosphoric acid) (EDTPO) As for the media b to f, pH was adjusted to that of the medium a with NaOH or HCl after the chemicals were added.
# [3] = system: HepG2 (human liver cancer derived cells) laminated on BRL (Buffalo Rat Liver 3A); assay: Lamination of cell layers, cytochrome P-450 3A metabolism of BFC to HFC (Example 4); type: cell-based; details: HepG2 layer transferred on BRL with the detachment solution; cultured 90 hours, BFC added, cultured two days
# Protocol: In the same manner as that of Example 2, HepG2 (human liver cancer derived cells) was cultured on the carrier for cell culture of Example 1, and BRL (Buffalo Rat Liver 3A, ATCC No. CRL 1442) was cultured on a polystyrene cell culture dish. Cell layers were transferred on the cells cultured on the dishes by using the detachment solution (v) mentioned in Example 2 in the same manner as that of Example 3 to obtain laminated cells.
SMILES,State of cells after detachment: Morphology of survived cells [1],State of cells after detachment: Survival rate [1],Detachment time [2] [min],State of cells: Morphology (CHL cells),State of cells: Proliferation rate (CHL cells; relative to medium a (MEM)),HFC produced through metabolism by cytochrome P-450 3A in laminated cells (fluorescence microscope) [3]
"O=P1([O-])OP(=O)([O-])OP(=O)([O-])OP(=O)([O-])OP(=O)([O-])OP(=O)([O-])O1.[Na+].[Na+].[Na+].[Na+].[Na+].[Na+] [(iv) MEM + HMPA, sodium hexametaphosphate]",Not deformed,90% or more,10,–,–,–
"O=C(O)CN(CCN(CC(=O)O)CC(=O)O)CC(=O)O [(iii) MEM + EDTA, EDTA]",–,–,15,X (30% or less of not rounded cells are indicated with X),X (degradation to 70% or less is indicated with X),–
"CC(O)(P(=O)(O)O)P(=O)(O)O [(v) MEM + HEDP, 1-hydroxyethane-1,1-diphosphoric acid]",Not deformed,90% or more,20,–,–,Fluorescence derived from HFC was observed in the portions of HepG2

# From US7094602B2, “Method for cell culture” (Fuji Photo Film Co, Ltd., priority 2002, dated 2006)
